Assay results: US20060008880A1, “Mouse trace amine associated receptors and polypeptides” (priority 2004, published 2006)
Like-named read-outs stand apart in the source and are kept apart here.

Biological target: Mouse TAAR 1 (Mus musculus, UniProt Q923Y8)
Assay: cAMP Biotrak EIA functional assay in HEK293 cells stably expressing mTAAR1
Type: cell-based
Text: Stable cell lines: For the generation of stably transfected cell lines HEK cells were transfected with the pIRES-NEO2 expression vectors of the respective TAARs by using Lipofectamin 2000 transfection reagent and Optimem 1 reduced serum medium with Glutamax (Invitrogen Cat. # 51985-026) following the recommendations given in the Lipofectamine 2000 datasheet. After 24 hr post transfection cells were trypsinated and transferred into 90 mm tissue culture dishes (Nunc) at dilutions between 1:10-1:300 in culture medium supplemented with 1 mg/ml G418 which was renewed on a daily basis. […] Picking of clones was performed by detaching the entire clone from the culture dish using a 1 ml Gilson pipette, trypsinizing the clone in a 1.5 ml Eppendorf cup using Trypsin/EDTA (Invitrogen Cat. # 25300-062) and plating them into a 48 well dish, from where the cells were subsequently expanded by transferring them to increasing culture surface areas (48 well—12 well—60 mm etc.). Whenever cells were transferred to a new plate they were carefully trypsinized. As soon as single clones were selected, the concentration of G418 in the culture medium was reduced to 500 µg/ml.

Chain of Mouse TAAR 1 (Q923Y8 whole entry): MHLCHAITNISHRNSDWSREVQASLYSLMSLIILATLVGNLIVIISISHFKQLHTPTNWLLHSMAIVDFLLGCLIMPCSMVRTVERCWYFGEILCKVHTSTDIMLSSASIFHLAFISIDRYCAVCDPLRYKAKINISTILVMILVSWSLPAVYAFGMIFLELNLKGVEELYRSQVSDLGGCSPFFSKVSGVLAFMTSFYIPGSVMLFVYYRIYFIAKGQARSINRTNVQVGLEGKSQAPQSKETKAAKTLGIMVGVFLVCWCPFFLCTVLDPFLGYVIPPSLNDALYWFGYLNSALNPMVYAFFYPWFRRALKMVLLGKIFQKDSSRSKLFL

SMILES | EC50 (read-out: EC50) [µM] | Max (96) (maximal response as percentage of the maximal cAMP levels induced by p-TYR, HEK293 cells stably expressing mTAAR1) [percentage] | EC50 [µM]
NCCc1ccc(O)c(O)c1 [Dopamine, dopamine] | 11.8 |  | 
NCCc1c[nH]cn1 [Histamine, histamine] | > 50 |  | 
CNCCc1ccccc1 [N-methyl-β-PEA] | 0.15 |  | 
NC[C@H](O)c1ccc(O)c(O)c1 [Norepinephrine, norepinephrine] | > 50 |  | 
NCC(O)c1ccc(O)cc1 (stereo not drawn) [OCT, octopamine] | 19.7 | 100 | 
NCCc1c[nH]c2ccc(O)cc12 [Serotonin, 5-HT, Serotonin] |  |  | > 50
NCCc1c[nH]c2ccccc12 [TRY, tryptamine] |  |  | 1.99
NCCc1ccccc1 [β-PEA, β-phenylethylamine] |  |  | 0.66
